According to patent publication US10059945B2, “Methods of controlling cell fate and consequences for disease” (THE GENERAL HOSPITAL CORPORATION, priority 2014, dated 2018):

System: reprogrammable MEFs
Experiment: alkaline phosphatase-positive (AP+) transgene-independent iPSC colony formation
Assay type: cell-based, mouse
Conditions: 4-factor reprogrammable cells, doxycycline
Experimental: Transfections of RepMEFs with siRNAs were performed in 12-well plates at the time of dox administration. Per 12-well plate, 2 ul of Lipofectamine™ 2000 was added to 75 ul of Optimem™ (Life Technologies™) and 1.5 ul of siRNA (esiRNA, Sigma™) was added to 75 ul of Optimem™; both mixtures were separately incubated at room temperature for 5 minutes, then combined and incubated for another 15 minutes before adding the solution to the reprogramming media (normal media lacking antibiotics). After overnight incubation, the transfection media was replaced with regular reprogramming media.

generation of AP+ iPSC colonies, small molecules vs knockdown alone | SMILES
significantly enhanced | O=C1O[C@H]([C@@H](O)CO)C(O)=C1O [ascorbic acid, L-Ascorbic acid]
significantly enhanced | Cc1c[nH]c(-c2cnc(NCCNc3ccc(C#N)cn3)nc2-c2ccc(Cl)cc2Cl)n1 [Gsk3 inhibitor, CHIR99021]
